{
  "source": "patent US20210062149A1",
  "about": "“SINGLE B-CELL CULTIVATION METHOD” (Hoffmann-La Roche Inc., priority 2010, published 2021)",
  "molecules": {"B1": {"name": "IL-4: interleukin-4, cytokine additive of the feeder mix (protein, UniProt P07750 21-140, looked up)", "Interleukin-4": "HIHGCDKNHLREIIGILNEVTGEGTPCTEMDVPNVLTATKNTTESELVCRASKVLRIFYLKHGKTPCLKKNSSVLMELQRLFRAFRCLDSSISCTMNESKSTSLKDFLESLKSIMQMDYS"}},
  "key": {"rabbit B-cells": {"system": "rabbit B-cells", "assay": "rbIgG ELISA of cell culture supernatants of rabbit B-cells co-cultivated with EL-4 B5 feeder cells", "type": "cell-based", "conditions": "for B-cell growth: SAC added to feeder mix", "experimental": "(§1) a) The co-cultivation was performed in 96-well multi well plates with round bottom. A basis solution comprising EL-4 B5 cells (1.6×10^6 cells/15.2 ml) and cytokines in EL-4 B5 medium was prepared. 200 μl of the basis solution was added to each well of the multi well plate. To each well a single B-cell was added by fluorescence activated cell sorting. After the addition of the B-cells the plate was centrifuged for 5 min. at 300×g. The plate is incubated for seven days at 37° C.\n[…] B cell culture supernatants were removed for screening and the cells harvested immediately for variable region gene cloning or frozen at −80° C. in 100 μl RLT buffer (Qiagen, Hilden, Germany).\n(§2) The 96-well multi well plate in which the co-cultivation was performed was centrifuged after seven days of co-cultivation at 300×g for 5 min. 150 μl supernatant was removed and diluted at a ratio of 2:1 with PBS in a second 96-well multi well plate.\nThe ELISA was performed as outlined in Example 17.\nThe antibody was used at a concentration of 50 ng/ml. If the OD was or exceeded 1 after an incubation time of 5 min. a dilution series of from 0.8 to 108 ng/ml IgG was tested.\nAntibodies produced by single deposited and co-cultivated B-cells or from B-cells obtained from an immunized experimental animal can be characterized with respect to specific antigen binding. The ELISA was performed at room temperature and the ELISA-solution was incubated between the individual steps on a shaker at 20×g. In the first step the antigen was bound to the wells of a 96-well multi well plate. If the antigen was a protein it had been diluted in coating buffer and applied directly to the plate. Peptide antigens were bound via the specific binding pair biotin/streptavidin. The wells of the multi well plate can be already coated with soluble CroteinC (CrC) by the manufacturer. If not, the wells were incubated after the immobilization of the antigen with 200 μl blocking buffer. After the incubation with 100 μl antigen solution per well (pre-coated multi well plate) or 200 μl blocking buffer, respectively, non-bound antigen or blocking buffer was removed by washing with wash buffer. The diluted B-cell supernatants were added in a volume of 100 μl per well and incubated. After the incubation the wells were washed. Afterwards the detection antibody was added in a volume of 100 μl per well. The antibody can be either conjugated to horseradish peroxidase or labeled with biotin. The detection antibody was determined with a streptavidin-horseradish peroxidase conjugate. After the incubation the multi well plate was washed and afterwards 50 μl of a substrate solution containing 3,3′,5,5′ tetramethyl benzidine (TMB) were added per well and incubated for a period as given in Table X. The enzymatic reaction was stopped by the addition of 50 μl sulfuric acid and the optical density was determined at 450 nm and 680 nm with a photometer (Rainbow Thermo ELISA Reader) and the Xread plus-software."}, "hamster B-cells": {"system": "hamster B-cells", "assay": "Co-cultivation of B-cells with feeder cells and feeder mix additives", "type": "cell-based", "experimental": "as §1, §2"}, "murine B-cells": {"system": "murine B-cells", "assay": "Co-cultivation of B-cells with feeder cells and feeder mix additives", "type": "cell-based, mouse", "experimental": "as §1, §2"}, "[1]": {"conditions": "SAC 1:20000, Table 8a third block (with w/o control)"}, "[2]": {"conditions": "SAC 1:50000, Table 8a third block"}, "[3]": {"conditions": "SAC 1:100000, Table 8a third block"}, "[4]": {"conditions": "SAC 1:150000, Table 8a third block"}, "[5]": {"conditions": "TSN + SAC, SAC 1:5000, Table 8a second block"}, "[6]": {"conditions": "TSN + SAC, SAC 1:10000, Table 8a second block"}, "[7]": {"conditions": "TSN + SAC, SAC 1:20000, Table 8a second block"}, "[8]": {"conditions": "TSN + SAC, SAC 1:40000, Table 8a second block"}, "[9]": {"conditions": "PAP-1 0.01 μM, in the presence of TSN and SAC"}, "[10]": {"conditions": "PAP-1 0.1 μM, in the presence of TSN and SAC"}, "[11]": {"conditions": "PAP-1 1 μM, in the presence of TSN and SAC"}, "[12]": {"conditions": "PAP-1 10 μM, in the presence of TSN and SAC"}, "[13]": {"conditions": "addition of PAP-1 to co-cultivation"}},
  "data": [
    {"molecule": "Staphylococcus aureus strain Cowans cells [SAC]", "values": [
      {"measurement": "rbIgG conc. of all rbIgG^+ wells [Ø ng/ml]", "setting": "rabbit B-cells; [1]", "result": 665, "unit": "ng/mL"},
      {"measurement": "rbIgG^+ wells [% total wells]", "setting": "rabbit B-cells; [1]", "result": 30, "unit": "% total wells"},
      {"measurement": "rbIgG^+ wells [n]", "setting": "rabbit B-cells; [1]", "result": 75, "unit": "n"},
      {"measurement": "rbIgG conc. of all rbIgG^+ wells [Ø ng/ml]", "setting": "rabbit B-cells; [2]", "result": 742, "unit": "ng/mL"},
      {"measurement": "rbIgG^+ wells [% total wells]", "setting": "rabbit B-cells; [2]", "result": 37, "unit": "% total wells"},
      {"measurement": "rbIgG^+ wells [n]", "setting": "rabbit B-cells; [2]", "result": 93, "unit": "n"},
      {"measurement": "rbIgG conc. of all rbIgG^+ wells [Ø ng/ml]", "setting": "rabbit B-cells; [3]", "result": 774, "unit": "ng/mL"},
      {"measurement": "rbIgG^+ wells [% total wells]", "setting": "rabbit B-cells; [3]", "result": 37, "unit": "% total wells"},
      {"measurement": "rbIgG^+ wells [n]", "setting": "rabbit B-cells; [3]", "result": 92, "unit": "n"},
      {"measurement": "rbIgG conc. of all rbIgG^+ wells [Ø ng/ml]", "setting": "rabbit B-cells; [4]", "result": 668, "unit": "ng/mL"},
      {"measurement": "rbIgG^+ wells [% total wells]", "setting": "rabbit B-cells; [4]", "result": 29, "unit": "% total wells"},
      {"measurement": "rbIgG^+ wells [n]", "setting": "rabbit B-cells; [4]", "result": 72, "unit": "n"},
      {"measurement": "B-cell growth", "setting": "rabbit B-cells; PBL (B cells and endogenous T cells) mixture for co-cultivation", "result": "B-cell growth was inhibited"},
      {"measurement": "B-cell growth", "setting": "rabbit B-cells; single deposited B-cells", "result": "only single deposited B-cells have a benefit in growth"},
      {"measurement": "number of IgG^+-wells/cell clones", "setting": "rabbit B-cells; SAC ratio of from 1:20000 to 1:150000", "result": "increased number of IgG^+-wells/cell clones"},
      {"measurement": "number of IgG^+-wells/cell clones", "setting": "rabbit B-cells; SAC ratio of from 1:50000 to 1:100000", "result": "highest numbers"},
      {"measurement": "rbIgG conc. of all rbIgG^+ wells [Ø ng/ml]", "setting": "rabbit B-cells; [5]", "result": 149.0, "unit": "ng/mL"},
      {"measurement": "rbIgG^+ wells [% total wells]", "setting": "rabbit B-cells; [5]", "result": 15, "unit": "% total wells"},
      {"measurement": "rbIgG^+ wells [n]", "setting": "rabbit B-cells; [5]", "result": 13, "unit": "n"},
      {"measurement": "rbIgG conc. of all rbIgG^+ wells [Ø ng/ml]", "setting": "rabbit B-cells; [6]", "result": 159.1, "unit": "ng/mL"},
      {"measurement": "rbIgG^+ wells [% total wells]", "setting": "rabbit B-cells; [6]", "result": 18, "unit": "% total wells"},
      {"measurement": "rbIgG^+ wells [n]", "setting": "rabbit B-cells; [6]", "result": 15, "unit": "n"},
      {"measurement": "rbIgG conc. of all rbIgG^+ wells [Ø ng/ml]", "setting": "rabbit B-cells; [7]", "result": 233.7, "unit": "ng/mL"},
      {"measurement": "rbIgG^+ wells [% total wells]", "setting": "rabbit B-cells; [7]", "result": 32, "unit": "% total wells"},
      {"measurement": "rbIgG^+ wells [n]", "setting": "rabbit B-cells; [7]", "result": 27, "unit": "n"},
      {"measurement": "rbIgG conc. of all rbIgG^+ wells [Ø ng/ml]", "setting": "rabbit B-cells; [8]", "result": 197.2, "unit": "ng/mL"},
      {"measurement": "rbIgG^+ wells [% total wells]", "setting": "rabbit B-cells; [8]", "result": 36, "unit": "% total wells"},
      {"measurement": "rbIgG^+ wells [n]", "setting": "rabbit B-cells; [8]", "result": 30, "unit": "n"},
      {"measurement": "number of antibody secreting B-cells and average IgG-concentration in the supernatant after co-cultivation", "setting": "rabbit B-cells; addition of SAC, single SAC lot", "result": "can be increased"}
    ]},
    {"molecule": "IL-6: interleukin-6, cytokine additive of the feeder mix", "values": [
      {"measurement": "IgG-concentration", "setting": "hamster B-cells; addition of IL-6 to the feeder mix, hamster-B-cells", "result": "increased IgG-concentration"},
      {"measurement": "number of IgG^+-wells/cell clones", "setting": "murine B-cells; addition of IL-6 to the feeder mix, murine-B-cells", "result": "increased number of IgG^+-wells/cell clones"}
    ]},
    {"molecule": "O=c1ccc2c(OCCCCOc3ccccc3)c3ccoc3cc2o1", "note": "[PAP-1, 5-(4-phenoxybutoxy) psoralene, reference compound]", "values": [
      {"measurement": "rbIgG conc. of all huCk^+ wells [average ng/ml]", "setting": "rabbit B-cells; [9]", "result": 289.0, "unit": "ng/mL"},
      {"measurement": "rbIgG^+ wells [% total wells]", "setting": "rabbit B-cells; [9]", "result": 29, "unit": "% total wells"},
      {"measurement": "rbIgG^+ wells [n]", "setting": "rabbit B-cells; [9]", "result": 72, "unit": "n"},
      {"measurement": "rbIgG conc. of all huCk^+ wells [average ng/ml]", "setting": "rabbit B-cells; [10]", "result": 452.9, "unit": "ng/mL"},
      {"measurement": "rbIgG^+ wells [% total wells]", "setting": "rabbit B-cells; [10]", "result": 27, "unit": "% total wells"},
      {"measurement": "rbIgG^+ wells [n]", "setting": "rabbit B-cells; [10]", "result": 69, "unit": "n"},
      {"measurement": "rbIgG conc. of all huCk^+ wells [average ng/ml]", "setting": "rabbit B-cells; [11]", "result": 579.5, "unit": "ng/mL"},
      {"measurement": "rbIgG^+ wells [% total wells]", "setting": "rabbit B-cells; [11]", "result": 37, "unit": "% total wells"},
      {"measurement": "rbIgG^+ wells [n]", "setting": "rabbit B-cells; [11]", "result": 93, "unit": "n"},
      {"measurement": "rbIgG conc. of all huCk^+ wells [average ng/ml]", "setting": "rabbit B-cells; [12]", "result": 890.7, "unit": "ng/mL"},
      {"measurement": "rbIgG^+ wells [% total wells]", "setting": "rabbit B-cells; [12]", "result": 32, "unit": "% total wells"},
      {"measurement": "rbIgG^+ wells [n]", "setting": "rabbit B-cells; [12]", "result": 80, "unit": "n"},
      {"measurement": "effect on number of B-cell clones", "setting": "rabbit B-cells; [13]", "result": "without decreasing the number of B-cell clones"},
      {"measurement": "effect on rbIgG secretion of B-cells", "setting": "rabbit B-cells; [13]", "result": "increases the rbIgG secretion of B-cells in a concentration dependent manner"}
    ]},
    {"molecule": "B1", "values": [
      {"measurement": "number of IgG^+-wells/cell clones and IgG-concentration in the supernatant", "setting": "hamster B-cells; addition of IL-4 to the feeder mix, hamster B-cells", "result": "increases the number of IgG^+-wells/cell clones as well as the IgG-concentration in the supernatant"},
      {"measurement": "number of IgG^+-wells/cell clones and IgG-concentration in the supernatant", "setting": "murine B-cells; addition of IL-4 to the feeder mix, murine B-cells", "result": "increases the number of IgG^+-wells/cell clones as well as the IgG-concentration in the supernatant"}
    ]}
  ]
}
